Our source for the EC50 values is patent US10584134B2, “Use of physiological cooling active ingredients, and agents containing such active ingredients” (SYMRISE AG, priority 2009, dated 2020).

Where a name gives a salt, the structure may show the parent alone.

Chain of human TRPM8 receptor (Q7Z2W7 whole entry): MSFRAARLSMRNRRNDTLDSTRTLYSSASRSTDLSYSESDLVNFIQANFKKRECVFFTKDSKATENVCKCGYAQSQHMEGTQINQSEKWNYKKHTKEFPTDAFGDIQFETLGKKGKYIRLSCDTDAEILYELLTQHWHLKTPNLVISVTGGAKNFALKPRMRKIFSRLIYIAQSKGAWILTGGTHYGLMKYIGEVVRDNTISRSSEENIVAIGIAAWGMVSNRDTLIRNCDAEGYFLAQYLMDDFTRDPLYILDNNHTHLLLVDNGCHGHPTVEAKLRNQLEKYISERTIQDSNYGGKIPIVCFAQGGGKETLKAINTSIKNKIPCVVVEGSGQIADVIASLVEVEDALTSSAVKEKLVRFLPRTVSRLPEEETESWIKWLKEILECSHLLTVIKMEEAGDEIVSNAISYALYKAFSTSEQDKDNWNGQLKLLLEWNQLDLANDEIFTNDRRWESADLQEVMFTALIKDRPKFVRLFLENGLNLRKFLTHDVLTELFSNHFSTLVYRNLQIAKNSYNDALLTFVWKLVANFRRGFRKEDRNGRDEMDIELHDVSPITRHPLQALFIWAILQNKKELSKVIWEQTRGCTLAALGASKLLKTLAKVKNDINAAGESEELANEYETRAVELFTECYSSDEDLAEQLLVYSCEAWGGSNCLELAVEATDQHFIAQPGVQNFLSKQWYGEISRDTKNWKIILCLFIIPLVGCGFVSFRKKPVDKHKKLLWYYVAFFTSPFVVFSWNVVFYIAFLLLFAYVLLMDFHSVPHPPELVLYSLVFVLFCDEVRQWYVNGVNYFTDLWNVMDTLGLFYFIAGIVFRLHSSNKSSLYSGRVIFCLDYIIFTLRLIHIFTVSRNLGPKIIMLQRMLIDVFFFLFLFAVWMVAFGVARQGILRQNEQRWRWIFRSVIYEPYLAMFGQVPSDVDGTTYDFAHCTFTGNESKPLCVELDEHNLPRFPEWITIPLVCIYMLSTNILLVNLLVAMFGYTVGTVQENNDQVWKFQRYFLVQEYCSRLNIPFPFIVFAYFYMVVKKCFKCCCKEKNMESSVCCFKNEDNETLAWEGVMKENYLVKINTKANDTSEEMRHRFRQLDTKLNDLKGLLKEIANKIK

The target in the first assay is human TRPM8 receptor (Homo sapiens (Human), UniProt Q7Z2W7). Description: Assay on TRPM8 modulators (Ca2+-sensitive dye, HEK293-TRPM8 test cells, EC50 determination). It is filed as cell-based. The conditions noted are these: Table A, structure type 1; assay according to reference example 3. An excerpt:
As a test cell system the human TRPM8 DNA (see plasmid pInd-M8 above) was used to prepare a stable transfixed HEK293 cell line. Here preference is for HEK293 which via the plasmid introduced offers the possibility of induction of the TRPM8 expression by means of tetracycline.
The agonisation or antagonisation of the receptor can be quantified by means of a Ca^2+-sensitive dye (e.g. FURA, Fluo-4, etc.).
To begin with, in a manner known per se, in cell culture flasks a fresh culture of transformed HEK cells is prepared. The HEK293-TRPM8 test cells are removed using trypsin from the cell culture flasks and 40 000 cells/well are sown with 100 μl medium in 96-well plates (Greiner #655948 Poly-D-lysine coated). In order to induce the TRPM8 receptor the growth medium tetracycline is mixed in (DMEM/HG, 10% FCS tetracycline-free, 4 mM L-glutamine, 15 μg/ml blasticidin, 100 μg/ml hygromycin B, 1 μg/ml tetracycline). The next day the cells are charged with Fluo-4Am dye and the test is performed.
The test substances are used in triplicate in concentrations of between 0.1 and 200 μm in the assay. Normally the compounds are kept ready in DMSO solutions and diluted for the assay to a maximum DMSO concentration of 2%.
In turn, `O=C1CCCC2=C1C1(CC3c4ccccc4CCN23)SCCCS1` (centres unmarked) [Compound 1-4, 2,3,4,5,6,10b,11,12-octahydro-spiro[4b-azachrysene-12,2′-[1,3]dithian]-1-one] gave a concentration giving a half-maximal response (EC50) of 3100 nM. In other words, the single-digit micromolar range. In the case of `C[C@H]1OC(=O)C2=C1N1CCc3ccccc3C1CC21SCCCS1` (some centres unmarked) [Compound 1-6], the EC50 was found to be 200 nM. Against the preceding compound, the EC50 is about 16-fold lower. Compound `CC1(C)CC(=O)C2=C(C1)N1CCc3ccccc3C1CC21SCCCS1` (centres unmarked) [Compound 1-5, 2,3,4,5,6,10b,11,12-octahydro-3,3-dimethyl-spiro[4b-azachrysene-12,2′-[1,3]dithian]-1-one] gave an EC50 of 1400 nM.

The assay is the same for the next values; noted with them: Table B, structure type 2; assay according to reference example 3.
`COc1cnc(-c2ccccn2)nc1NC(C)C` [Compound 2-22]: a half-maximal effect (EC50) was put at 700 nM.

As for `COc1cnc(-c2ccccc2)nc1N1CCOCC1` [Compound 2-13], it took 11700 nM to reach a half-maximal effect (EC50).

With `CCc1cnc(-c2ccccn2)nc1NC(C)C` [Compound 2-14, (5-ethyl-2-pyridin-2-yl-pyrimidin-4-yl)-isopropyl-amine], it took 400 nM to reach a half-maximal effect (EC50).

With `COc1cnc(-c2ccccn2)nc1NC(C)C` [Compound 2-18, Isopropyl-(5-methoxy-2-pyridin-2-yl-pyrimidin-4-yl)-ammonium tartrate], the concentration for a half-maximal effect (EC50) is 500 nM.

The assay is the same for the next values; noted with them: Table C, structure type 3; assay according to reference example 3.
Compound `COc1cccc(/C=C/C(=O)N(c2ccccn2)C2CCCCC2)c1` [Compound 3-37] returned an EC50 of 3000 nM. For `O=C(COc1ccccc1)N(c1nccs1)C1CCCCC1` [Compound 3-46], the midpoint of the response, the EC50, lay at 3000 nM. `O=C(/C=C/c1ccccc1)N(c1ccccc1)c1ccccc1` [Compound 3-27, Cinammic acid-N,N-diphenylamide] gave an EC50 of 2900 nM. The same measure, in the same setting: then `COc1ccc(C(=O)N(c2ccccn2)C2CCCCC2)cc1` [Compound 3-48], with 10900 nM; and `O=C(COc1ccc2c(c1)OCO2)N(c1ccccc1)C1CCCCC1` [Compound 3-44], with 1000 nM; and `COc1ccc(/C=C/C(=O)N(Cc2ccccc2)c2ccccn2)cc1` [Compound 3-24], with 2200 nM. On the same count and under the same terms, then `COc1ccc(/C=C/C(=O)N(C2CCCCC2)C2CCCCC2)cc1` [Compound 3-18, (E)-N,N-dicyclohexyl-3-(4-methoxy-phenyl)-acrylamide], with 100 nM; and `COc1ccc(/C=C/C(=O)N(c2ccccn2)C2CCCCC2)cc1` [Compound 3-17, 4-methoxycinammic acid-N-cyclohexyl-N-2-pyridylamide], with 400 nM; and `COc1ccc(/C=C/C(=O)N(c2ccccc2)C(C)C)cc1` [Compound 3-22], with 1300 nM. As for `COc1ccc(/C=C/C(=O)N(c2ccccc2)C2CCCCC2)cc1` [Compound 3-19], the EC50 is 700 nM. This EC50 lies about 1.9-fold lower than the previous one. The same measure, in the same setting: then `Cc1ccc(/C=C/C(=O)N(C2CCCCC2)C2CCCCC2)cc1` [Compound 3-33], with 2100 nM. Same read-out and setting: then `Cc1ccccc1N(Cc1ccccc1)C(=O)Cc1ccccc1` [Compound 3-47], with 1700 nM.

The compound `Cc1ccc(/C=C/C(=O)N(c2ccccc2)c2ccccc2)cc1` [Compound 3-34, 4-methylcinammic acid-N,N-diphenylamide] yielded an EC50 of 4000 nM.

In the case of `CC(C)N(C(=O)/C=C/c1ccc2c(c1)OCO2)C1CCCCC1` [Compound 3-5, (E)-3-benzo[1,3]dioxol-5-yl-N-cyclohexyl-N-isopropyl-acrylamide], the EC50 came out at 200 nM. In turn, `O=C(/C=C/c1ccc2c(c1)OCO2)N(C1CCCCC1)C1CCCCC1` [Compound 3-2] gave an EC50 of 11800 nM. Still for that read-out and setting: as for `Cc1ccc(/C=C/C(=O)N(c2ccccn2)C2CCCCC2)cc1` [Compound 3-32, (E)-N-cyclohexyl-N-pyridin-2-yl-3-p-tolyl-acrylamide], the figure is 300 nM; as for `Cc1ccccc1/C=C/C(=O)N(c1ccccn1)C1CCCCC1` [Compound 3-30], 400 nM. The same measure, in the same setting: as for `CCCN(C(=O)/C=C/c1ccc2c(c1)OCO2)c1ccccc1` [Compound 3-7], the figure is 1100 nM. On to `O=C(/C=C/c1ccccc1)N(Cc1ccccc1)c1ccccc1` [Compound 3-28], for which the midpoint of the response, the EC50, lay at 2400 nM.

As usually defined, the EC50 is the concentration needed to bring the measured effect to its halfway point. Read a low EC50 as an effect from little substance.
